Measurements published in US8962616B2, “Heterocyclic substituted hexahydropyrano[3,4-d][1,3]thiazin-2-amine compounds” (Pfizer Inc., priority 2012, dated 2015).
Structures can show the parent of a compound that is named as a salt.

How the values were obtained:
BACE2 enzyme = BACE2 enzyme (Homo sapiens (Human), UniProt Q9Y5Z0); assay: BACE2 Cell-free Assay (fluorescence polarization, synthetic substrate); format: biochemical; details: single determination
Method: This assay measures the inhibition of the BACE2 enzyme as it cleaves a non-native peptide. A synthetic substrate that can be cleaved by BACE2 having N-terminal biotin and made fluorescent by the covalent attachment of Oregon Green at the Cys residue is used to assay BACE2 activity in the presence or absence of the inhibitory compounds. The substrate is Biotin-[…]-C(Oregon green)-KK-OH. The BACE2 enzyme is available from Enzo Life Sciences (Cat # BML-SE550). Compounds are incubated in a ½ log dose response curve from a top concentration of 100 μM with BACE2 enzyme and the biotinylated fluorescent peptide in 384-well black plates (Thermo Scientific #4318). BACE2 is at a final concentration of 2.5 nM with a final concentration of peptide substrate of 150 nM in a reaction volume of 30 μL assay buffer (100 mM Sodium Acetate, pH 4.5 (brought to pH with acetic acid), and 0.001% Tween-20). Plates are covered and incubated for 3 hours at 37° C. The reaction is stopped with the addition of 30 μL of 1.5 μM Streptavidin (Pierce, #21125). After a 10 minute incubation at room temperature, plates are read on a PerkinElmer Envision for fluorescent polarization (Ex485 nm/Em530 nm). The activity of the beta-secretase enzyme is detected by changes in the fluorescence polarization that occur when the substrate is cleaved by the enzyme.

BACE1 enzyme = BACE1 enzyme (Homo sapiens (Human), UniProt P56817); assay: BACE1 Cell-Free Assay (fluorescence polarization, synthetic APP substrate); format: biochemical; details: geometric mean of 2-7 determinations (values marked b: single determination)
BACE1 enzyme, sequence (P56817 46-457): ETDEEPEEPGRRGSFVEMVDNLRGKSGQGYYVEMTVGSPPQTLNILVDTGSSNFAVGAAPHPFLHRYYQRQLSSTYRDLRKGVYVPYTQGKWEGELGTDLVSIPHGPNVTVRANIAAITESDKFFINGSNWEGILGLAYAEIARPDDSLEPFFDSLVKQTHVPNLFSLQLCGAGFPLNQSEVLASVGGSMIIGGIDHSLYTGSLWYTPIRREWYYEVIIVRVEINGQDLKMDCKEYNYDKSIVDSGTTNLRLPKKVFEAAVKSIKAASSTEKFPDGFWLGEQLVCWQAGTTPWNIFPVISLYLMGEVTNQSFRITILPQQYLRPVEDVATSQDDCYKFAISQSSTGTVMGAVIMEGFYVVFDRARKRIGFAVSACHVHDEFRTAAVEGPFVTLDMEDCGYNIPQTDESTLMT
From the text: This assay measures the inhibition of the beta-secretase enzyme as it cleaves a non-native peptide.
A synthetic APP substrate that can be cleaved by beta-secretase having N-terminal biotin and made fluorescent by the covalent attachment of Oregon Green at the Cys residue is used to assay beta-secretase activity in the presence or absence of the inhibitory compounds. […] The BACE1 enzyme is affinity purified material from conditioned media of CHO-K1 cells that have been transfected with a soluble BACE construct (BACE1deltaTM96His). Compounds are incubated in a ½ log dose response curve from a top concentration of 100 μM with BACE1 enzyme and the biotinylated fluorescent peptide in 384-well black plates (Thermo Scientific #4318). BACE1 is at a final concentration of 0.1 nM with a final concentration of peptide substrate of 150 nM in a reaction volume of 30 μL assay buffer (100 mM sodium acetate, pH 4.5 (brought to pH with acetic acid), and 0.001% Tween-20). Plates are covered and incubated for 3 hours at 37° C. The reaction is stopped with the addition of 30 μL of 1.5 μM Streptavidin (Pierce, #21125). After a 10 minute incubation at room temperature, plates are read on a PerkinElmer Envision for fluorescent polarization (Ex485 nm/Em530 nm). The activity of the beta-secretase enzyme is detected by changes in the fluorescence polarization that occur when the substrate is cleaved by the enzyme.

[1] = tested on: H4 human neuroglioma cells over-expressing the wild-type human APP695; assay: sAPPβ Whole-Cell Assay (in vitro sAPPb assay, ELISA); format: cell-based; details: 18 hours, geometric mean of 2-7 determinations (values marked b: single determination)
Method: Whole Cell-Free Assay (In Vitro sAPPb Assay):
H4 human neuroglioma cells over-expressing the wild-type human APP695 are treated for 18 hours with compound in a final concentration 1% DMSO. sAPPβ levels are measured using TMB-ELISA with capture APP N-terminal antibody (Affinity BioReagents, OMA1-03132), wild-type sAPPβ specific reporter p192 (Elan), and tertiary anti rabbit-HRP (GE Healthcare).

BACE2 enzyme, sequence (Q9Y5Z0 63-518): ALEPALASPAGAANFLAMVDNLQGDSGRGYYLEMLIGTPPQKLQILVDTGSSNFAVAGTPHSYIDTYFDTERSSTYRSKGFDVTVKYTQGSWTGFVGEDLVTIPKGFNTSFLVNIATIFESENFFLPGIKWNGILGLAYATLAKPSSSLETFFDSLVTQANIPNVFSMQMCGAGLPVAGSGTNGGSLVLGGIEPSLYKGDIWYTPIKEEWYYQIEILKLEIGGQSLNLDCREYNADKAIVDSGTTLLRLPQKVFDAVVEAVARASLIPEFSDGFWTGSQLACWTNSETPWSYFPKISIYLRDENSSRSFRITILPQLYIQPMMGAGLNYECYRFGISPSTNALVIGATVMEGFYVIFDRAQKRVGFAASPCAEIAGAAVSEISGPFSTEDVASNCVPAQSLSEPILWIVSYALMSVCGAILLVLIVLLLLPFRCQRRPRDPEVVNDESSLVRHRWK

Row | IC50 ([1]; Homo sapiens) | Compound | IC50 (BACE2 enzyme) | IC50 (BACE1 enzyme) | IC50 [1]
1 | 0.024 µM | Cc1cnc([C@H]2C[C@H]3CSC(N)=N[C@@]3(c3ccc(F)cc3F)CO2)nc1 [Example 24, (4aR,6R,8aS)-8a-(2,4-difluorophenyl)-6-(5-methylpyrimidin-2-yl)-4,4a,5,6,8,8a-hexahydropyrano[3,4-d][1,3]thiazin-2-amine, trifluoroacetate salt] | 1.08 µM | 0.688 µM | –
2 | – | (4aR,6R,8aS)-8a-(2,4-Difluorophenyl)-6-(3-methyl-1,2,4-oxadiazol-5-yl)-4,4-a,5,6,8,8a-hexahydropyrano[3,4-][1,3]thiazin-2-amine, trifluoroacetate salt [Example 13] | 0.208 µM | 0.439 µM | 0.034 µM
3 | – | (4aR,6R,8aS)-8a-(2,4-Difluorophenyl)-6-(5-methyl-1,3,4-oxadiazol-2-yl)-4,4-a,5,6,8,8a-hexahydropyrano[3,4-d][1,3]thiazin-2-amine [Example 17] | 5.56 µM | 0.301 µM | 0.01 µM
